{"source": "paper PMC11939078", "about": "“TAK-994 mechanistic investigation into drug-induced liver injury” (Toxicological Sciences, 2025)", "key": {"Hepatocyte spheroids": {"tested_on": "Hepatocyte spheroids", "assay": "Hepatocyte spheroid (monoculture, no nonparenchymal cells) cytotoxicity, cellular ATP", "format": "cell-based, human", "conditions": "Homo sapiens, Hepatocyte; cellular ATP; read-out: IC50, hepatocyte spheroids (Fig. 2B)", "method": "(§1) Toxicology of TAK-994 was assessed using lnSphero’s 3D lnSight Human Liver models, based on N-acetyl-L-cysteine causality assay, glutathione depletion assay, and lipopolysaccharide (LPS)-sensitization assay. Hepatotoxicity was assessed in 7- and 14-day mono and co-culture models, in which cells were exposed to TAK-994 (0.1, 0.3, 1, 3.16, 10, 31.6, or 100 μM) […].\n(§2) The test system was Human 3D InSight Liver Models, production ID hLiMT_589, cryopreserved primary human hepatocytes (Lot IPDH_18; single donor) in monoculture or in co-culture with cryopreserved primary human nonparenchymal cells (Lot IPHN_17; single donor). Human liver microtissues are composed of roughly 1000 hepatocytes and 1000 non-parenchymal live cells. Non-parenchymal liver cell fractions are expected to be composed of Kupffer cells and liver endothelial cells however, these were not identified.\n(§3) Mono and co-culture model cells were exposed to TAK-994 (0.1, 0.3, 1, 3.16, 10, 31.6, or 100 μM in 0.5% DMSO) for 7 days (TAK-994 administered on Days 0 and 4) or 14 days (TAK-994 administered on Days 0, 5, and 9). Six replicates were tested for each condition. The vehicle control was 0.5% DMSO, and the positive control was chlorpromazine (0.1, 0.3, 1, 3.16, 10, 31.6, or 100 μM in DMSO). Cellular ATP content was measured in the cell lysate on Days 7 or 14 of treatment. LDH release was measured in the cell supernatant on Days 4 and 7 or on Days 5, 9, and 14 and normalized to lysed controls.\n(§4) Intracellular ATP content in model lysates was measured with the CellTiter-Glo® 2.0 Cell Viability Assay (Catalogue No. G9243, Promega). The Bioluminescent LDH Release Toxicity Assay Kit (Catalogue No. J2380, Promega) was used to assess extracellular LDH release and normalized to lysed controls. ATP, LDH, GSH, and triglycerides were measured according to internal technical operating procedures."}, "[1]": {"tested_on": "human liver microtissues + FFA", "assay": "Hepatotoxicity in steatosis liver model (free fatty acids)", "format": "cell-based", "conditions": "Homo sapiens, 336 h; free fatty acids added to medium; read-out: IC50, co-culture (14 days) + FFA (Fig. 3A)", "method": "as §3, with “for” for “for 7 days (TAK-994 administered on Days 0 and 4) or”, “9). The cell culture medium was supplemented with free fatty acids of 100 μM of Oleic acid and 66 μM of Palmitic acid.” for “9).”, “Day” for “Days 7 or”, “Days” for “Days 4 and 7 or on Days”, “controls. Cellular triglyceride content was measured in the microtissues on Day 14.” for “controls.”\nas §4"}, "human liver microtissues [2]": {"tested_on": "human liver microtissues", "assay": "Human liver microtissue (co-culture) cytotoxicity, cellular ATP", "format": "cell-based", "conditions": "for detection of hepatotoxicity by HepG2 72-h / human liver microtissue assays: retrospective application", "method": "as §1, §2\nThe culture medium was 3D InSight Human Liver Maintenance Medium TOX (Catalogue No. CS-07-001, InSphero). The treated cells in 96-well Akura™ plates were incubated in a humidified cell culture incubator (37°C, 5% CO2).\nas §3, §4"}, "[3]": {"assay": "HepG2 Glu/Gal 24-h cytotoxicity (mitochondrial toxicity)", "format": "cell-based, human", "conditions": "human, HepG2 cells", "method": "(§5) Cytotoxicity of TAK-994 was evaluated in glucose or galactose medium after 24 h and in glucose medium after 72 h in HepG2 cells, with cryopreserved HepG2 cells thawed and seeded onto assay plates at 5,000 cells/well in glucose or galactose medium for the 24-h assay and at 2,500 cells/well in glucose medium for the 72-h assay. After ∼24 h of incubation at 37 °C in 5% CO2, the cells were incubated with test solutions under the same conditions for 24 h for the plate with 5,000 cells/well or 72 h for the plate with 2,500 cells/well. Cytotoxicity of TAK-994 was also assessed using HepG2 cells with CYP3A4 overexpression using a lentivirus vector. HepG2/CYP3A4 cells were incubated in media containing TAK-994 (0.09 to 200 μM), positive control aflatoxin B1 (0.04 to 80 μM), or 1.0% DMSO (negative control). In both cytotoxicity assays, adenosine triphosphate (ATP) content was assessed after incubation using a commercial luminescence assay (CellTiter-Glo; Promega Co., Ltd, WI, United States).\nHepG2 cells (American Type Culture Collection [ATCC, VA, USA]) were acclimated to Dulbecco's Modified Eagle Medium (DMEM; Thermo Fisher Scientific, MA, USA) with either high glucose or high galactose and containing 10% FBS for 1 week then cryopreserved. […] After the incubation, CellTiter-Glo® (Promega Co., Ltd., WI, USA) was added to the assay plates, cells were incubated for 30 minutes, and luminescence was recorded to measure the ATP content using an EnVision plate reader (PerkinElmer Co., Ltd., MA, USA). The test compound TAK-994 was evaluated at concentrations of 0.046, 0.14, 0.41, 1.2, 3.7, 11, 33, and 100 μM. Positive controls rotenone and staurosporine were purchased from FUJIFILM Wako Pure Chemical Corporation (Osaka, Japan) and evaluated at concentrations of 0.046, 0.14, 0.41, 1.2, 3.7, 11, 33, and 100 μM in DMSO (rotenone) or 0.0046, 0.014, 0.041, 0.12, 0.37, 1.1 , 3.3, and 10 μM in DMSO (staurosporine). […]"}, "[4]": {"assay": "HepG2 72-h cytotoxicity assay (glucose medium, ATP content)", "format": "cell-based, human", "conditions": "human, HepG2 cells", "method": "as §5\nHepG2 cells (American Type Culture Collection [ATCC, VA, USA]) were acclimated to Dulbecco's Modified Eagle Medium (DMEM; Thermo Fisher Scientific, MA, USA) with either high glucose or high galactose and containing 10% FBS for 1 week then cryopreserved. The cryopreserved HepG2 cells were thawed, cultured for 24 hours, then seeded at 5000 cells/well in glucose or galactose medium for the 24-hour assay and at 2500 cells/well in glucose medium for the 72-hour assay onto the assay plates. After approximately 24 hours of incubation at 37°C in 5% CO2, the cells were incubated with test solutions under the same conditions for 24 hours for the plate with 5000 cells/well or 72 hours for the plate with 2500 cells/well. After the incubation, CellTiter-Glo® (Promega Co., Ltd., WI, USA) was added to the assay plates, cells were incubated for 30 minutes, and luminescence was recorded to measure the ATP content using an EnVision plate reader (PerkinElmer Co., Ltd., MA, USA). The test compound TAK-994 was evaluated at concentrations of 0.046, 0.14, 0.41, 1.2, 3.7, 11, 33, and 100 μM. Positive controls rotenone and staurosporine were purchased from FUJIFILM Wako Pure Chemical Corporation (Osaka, Japan) and evaluated at concentrations of 0.046, 0.14, 0.41, 1.2, 3.7, 11, 33, and 100 μM in DMSO (rotenone) or 0.0046, 0.014, 0.041, 0.12, 0.37, 1.1 , 3.3, and 10 μM in DMSO (staurosporine). Two experiments were conducted at each concentration.\nInhibition rate (%) = (1-mean of sample values / mean of Max values) × 100, where Max values = vehicle control."}, "human liver microtissues [5]": {"tested_on": "human liver microtissues", "assay": "Glutathione depletion (BSO) assay in liver microtissues", "format": "cell-based", "method": "as §1\nCo-culture model cells were pretreated with BSO (150 μM in DMSO) and then exposed to TAK-994 (0.1, 0.3, 1, 3.16, 10, 31.6, or 100 μM in 0.5% DMSO) in the presence and absence of BSO for 14 days (during the treatment period, TAK-994 with or without BSO was administered on Days 0, 5, and 9). Six replicates were tested for each condition. The vehicle control was 0.5% DMSO and the positive control was acetaminophen (0.6, 1.25, 2.5, or 5 mM in Medium TOX). Cellular ATP content was measured in the cell lysate on Day 14 of treatment. LDH release was measured on Days 5, 9, and 14 in the cell supernatant. For cells administered BSO alone, cellular ATP content was also measured on Day 3 and LDH release was also determined between Days 0 to 3. LDH measurements were normalized to lysed controls. Cellular GSH content was measured by GSH-Glo™ Glutathione Assay (Promega) on Days 0, 3, and 14 in the positive control group.\nas §4"}, "human hepatocytes": {"tested_on": "human hepatocytes", "design": "method as in Thompson et al. 2012", "conditions": "ref Thompson et al. 2012; cited from earlier work"}}, "note": "Where two headings read alike, the source gives them in different places."}
{"smiles": "CN(C)CCCN1c2ccccc2Sc2ccc(Cl)cc21", "note": "[Chlorpromazine, chlorpromazine, reference compound]", "values": [{"measurement": "IC50", "setting": "Hepatocyte spheroids", "value": 9.26, "unit": "µM"}, {"measurement": "IC50", "setting": "[1]", "value": 8.35, "unit": "µM"}, {"measurement": "IC50", "setting": "human liver microtissues [2]; Homo sapiens, 336 h, without FFA, read-out: IC50, co-culture (14 days) (Fig. 3A)", "value": 6.16, "unit": "µM"}, {"measurement": "IC50", "setting": "human liver microtissues [2]; Homo sapiens, cellular ATP, read-out: IC50, liver microtissues (Fig. 2B)", "value": 7.64, "unit": "µM"}]}
{"smiles": "COc1cccc([C@H]2O[C@H](CC(=O)N3CCC(CC(=O)O)CC3)C(=O)N(CC(C)(C)COC(C)=O)c3ccc(Cl)cc32)c1OC", "note": "[TAK-475]", "values": [{"measurement": "IC50 at 24 h", "setting": "[3]", "value": "> 100", "unit": "µM"}, {"measurement": "IC50 at 72 h", "setting": "[4]", "value": "> 100", "unit": "µM"}, {"measurement": "IC50", "setting": "human liver microtissues [2]; Homo sapiens, 336 h, read-out: Liver microtissue toxicity for 14 days IC50", "value": 58.6, "unit": "µM"}, {"measurement": "detection of hepatotoxicity by HepG2 72-h / human liver microtissue assays", "setting": "human liver microtissues [2]", "value": "detected"}]}
{"smiles": "Cc1cc(OCCCS(C)(=O)=O)cc(C)c1-c1cccc(COc2ccc3c(c2)OC[C@H]3CC(=O)O)c1", "note": "[TAK-875]", "values": [{"measurement": "IC50 at 24 h", "setting": "[3]", "value": "> 100", "unit": "µM"}, {"measurement": "IC50 at 72 h", "setting": "[4]", "value": "> 100", "unit": "µM"}, {"measurement": "IC50", "setting": "human liver microtissues [2]; read-out: Liver microtissue toxicity for 14 days IC50", "value": 12.7, "unit": "µM"}, {"measurement": "detection of hepatotoxicity by HepG2 72-h / human liver microtissue assays", "setting": "human liver microtissues [2]", "value": "detected"}]}
{"smiles": "CC(=O)Nc1ccc(O)cc1", "note": "[acetaminophen, reference compound]", "values": [{"measurement": "sensitization of liver microtissues by buthionine sulfoximine depletion", "setting": "human liver microtissues [5]", "value": "induced liver microtissue sensitivity"}]}
{"smiles": "Cc1c(C(=O)NN2CCCCC2)nn(-c2ccc(Cl)cc2Cl)c1-c1ccc(Cl)cc1", "note": "[rimonabant]", "values": [{"measurement": "CVB of marketed drugs without high risk of hepatotoxicity", "setting": "human hepatocytes", "value": "elevated CVB"}]}
